Assay results published in paper PMC6753678, “Fueling Open Innovation for Malaria Transmission-Blocking Drugs: Hundreds of Molecules Targeting Early Parasite Mosquito Stages” (Frontiers in Microbiology, 2019).

Assays:
HepG2 cells = test: HepG2 cytotoxicity assay; conditions: HepG2 cytotoxicity unified across screens; >25 set to 25.00
Procedure, shortened: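 Cells are plated at 2,500 per well on compound-treated plates in MEM containing 10% fetal bovine serum and 1% NEAA, then incubated 48 h at 37°C.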

[1] = system: P. falciparum late stage (stages IV-V) gametocytes; test: P. falciparum late stage gametocyte ATP depletion assay (Pf GC-ATP); conditions: 1: YES; 0: NO; >10-fold selectivity over cytotoxicity
[2] = system: P. falciparum late stage (stages IV-V) gametocytes; set-up: method as in Almela et al 2016; conditions: P. falciparum late stage gametocyte ATP assay, TCAMS screen; ref Almela et al 2016; read-out: Pf GCT ATP IC50; cited from earlier work

Compound	Unified cytotox (HepG2 cells) [µM]	Is compound selective in assay? Pf GC-ATP active? [1]	IC50 [2] [nM]
CC(C)CNCc1ccc(-c2cccc(CN(CCN(C)C)C(=O)CCC3CCCC3)c2)cc1.O=C(O)C(F)(F)F [TCMDC-140553]	5.50	1 (1: YES)	540
CC(C)CNCc1cccc(-c2cccc(CN(CCCN3CCN(C)CC3)C(=O)CCC3CCCC3)c2)c1.O=C(O)C(F)(F)F [TCMDC-140554]	4.55	0 (0: NO)	600
CN1CCN(CCCN(Cc2cccc(-c3cccc(CNC4CCCC4)c3)c2)C(=O)CCC2CCCC2)CC1.O=C(O)C(F)(F)F [TCMDC-140555]	7.50	0 (0: NO)	810
CC(C)CNCc1ccc(-c2ccc(CN(CCCN3CCN(C)CC3)C(=O)CCC3CCCC3)cc2)cc1.O=C(O)C(F)(F)F [TCMDC-140559]	5.39	0 (0: NO)	540
CN1CCN(CCCN(Cc2ccc(-c3ccc(CNC4CCCC4)cc3)cc2)C(=O)CCC2CCCC2)CC1.O=C(O)C(F)(F)F [TCMDC-140560]	6.00	1 (1: YES)	530
O=C(O)C(F)(F)F.O=C(c1cccs1)N(Cc1cccc(-c2ccc(CNC3CCCC3)cc2)c1)C1CCN(Cc2ccccc2)CC1 [TCMDC-140567]	7.10	0 (0: NO)	850
CC(C)CNCc1cccc(-c2cccc(CN(CCN(C)C)C(=O)Nc3ccccc3)c2)c1.O=C(O)C(F)(F)F [TCMDC-140592]	15.78	1 (1: YES)	660
CN1CCN(CCCN(Cc2ccc(-c3cccc(CNC4CCCC4)c3)cc2)C(=O)Nc2ccccc2)CC1.O=C(O)C(F)(F)F [TCMDC-140605]	14.26	1 (1: YES)	180
O=C(NCCc1ccccc1)N(Cc1cccc(-c2ccc(CNC3CCCC3)cc2)c1)C1CCN(Cc2ccccc2)CC1.O=C(O)C(F)(F)F [TCMDC-140618]	7.42	0 (0: NO)	1310
CN(C)CCN(Cc1ccccc1-c1ccc(CNCCc2ccccc2)cc1)C(=O)NC1CCCCC1.O=C(O)C(F)(F)F [TCMDC-140626]	6.40	1 (1: YES)	350
CC(C)CNCc1ccc(-c2cccc(CN(C(=O)NC3CCCCC3)C3CCN(Cc4ccccc4)CC3)c2)cc1.O=C(O)C(F)(F)F [TCMDC-140628]	1.81	0 (0: NO)	1660
CC(C)CNCc1cccc(-c2cccc(CN(CCCN3CCN(C)CC3)C(=O)NC3CCCCC3)c2)c1.O=C(O)C(F)(F)F [TCMDC-140633]	16.75	0 (0: NO)	1780
O=C(C1CC1c1ccccc1)N(Cc1ccc(-c2ccc(CNCCc3ccccc3)cc2)cc1)C1CCNCC1.O=C(O)C(F)(F)F (stereo not drawn) [TCMDC-141443]	6.70	1 (1: YES)	390
O=C(CC1CCCC1)N(Cc1ccc(-c2ccc(CNC3Cc4ccccc4C3)cc2)cc1)CC1CCCCN1.O=C(O)C(F)(F)F (stereo not drawn) [TCMDC-141446]	6.47	0 (0: NO)	1000
CC(C)CC(=O)N(Cc1ccc(-c2ccc(CNC3Cc4ccccc4C3)cc2)cc1)C1CCNCC1.O=C(O)C(F)(F)F [TCMDC-141449]	6.20	0 (0: NO)	630
O=C(COc1ccccc1)N(Cc1ccc(-c2ccc(CNC3Cc4ccccc4C3)cc2)cc1)C1CCNCC1.O=C(O)C(F)(F)F [TCMDC-141450]	7.80	0 (0: NO)	990
CN1CCC(C(=O)N(Cc2ccc(-c3ccc(CNCCc4ccccc4)cn3)cc2)C2CCN(Cc3ccccc3)CC2)CC1.O=C(O)C(F)(F)F [TCMDC-141552]	9.27	1 (1: YES)	900
CCN(CC)CCN(Cc1ccc(-c2ccc(C(F)(F)F)cc2)cc1)C(=O)c1ccc(-c2ccc(NC(=O)OC)cc2C)cc1 [TCMDC-141558]	5.40	0 (0: NO)	3710
CCN(CC)CCCNc1ncc2c(-c3ccc(NC(=O)Nc4cc(C(F)(F)F)ccc4F)cc3)nn(C)c2n1.O=C(O)C(F)(F)F [TCMDC-141583]	9.50	0 (0: NO)	3480
CCN(Cc1ccc(-c2ccc(C(F)(F)F)cc2)cc1)C(=O)Cn1c(SCc2cccc(F)c2F)cc(=O)c2cc(CN3CCCCC3)ccc21.Cl [TCMDC-141592]	4.20	0 (0: NO)	2340
